Activity calls are given as the source filed them. The calls are words filed in the database; no cut-off is given here.
Assays:
[1] = test system: NALM-6; assay: Antiproliferative activity against human NALM-6 cells assessed as reduction in cell viability incubated for 48 hrs by CCK8 assay; type: functional, cell-based; conditions: NALM-6, 48 h
[2] = test system: Jurkat; assay: Antiproliferative activity against human Jurkat cells assessed as reduction in cell viability incubated for 48 hrs by CCK8 assay; type: functional, cell-based
[3] = test system: HL-60; assay: Antiproliferative activity against human HL-60 cells assessed as reduction in cell viability incubated for 48 hrs by CCK8 assay; type: functional, cell-based; conditions: HL-60, 48 h
[4] = test system: K562; assay: Antiproliferative activity against human K562 cells assessed as reduction in cell viability incubated for 48 hrs by CCK8 assay; type: functional, cell-based; conditions: K562, 48 h
[5] = test system: L02; assay: Cytotoxicity against human L02 cells assessed as reduction in cell viability by CCK8 assay; type: toxicity, cell-based
[6] = test system: MCF-10A; assay: Cytotoxicity against human MCF-10A cells assessed as reduction in cell viability by CCK8 assay; type: toxicity, cell-based
[7] = test system: HUVEC; assay: Cytotoxicity against human HUVEC cells assessed as reduction in cell viability by CCK8 assay; type: toxicity, cell-based
[8] = test system: HUVEC; assay: Cytotoxicity against human HUVEC cells assessed as reduction in cell viability up to 50 uM by CCK8 assay; type: toxicity, cell-based
[9] = test system: NALM-6; assay: Potency index, ratio of celecoxib IC50 to test compound IC50 for antiproliferative activity against human NALM-6 cells assessed as reduction in cell viability incubated for 48 hrs by CCK8 assay; type: functional
[10] = test system: NALM-6; assay: Antiproliferative activity against human NALM-6 cells assessed as reduction in cell viability incubated for 24 hrs by CCK8 assay; type: functional, cell-based
[11] = target: Histone deacetylase; assay: Inhibition of HDAC in human NALM-6 nuclear extract incubated for 48 hrs by fluorometric analysis; type: subcellular, Nucleus
[12] = test system: NALM-6; assay: Downregulation of HDAC2 expression in human NALM-6 cells incubated for 48 hrs by western blot analysis; type: functional, cell-based; conditions: dose 10-30 µM, DDE = dose-dependent effect
[13] = test system: NALM-6; assay: Induction of cell cycle arrest in human NALM-6 cells assessed as accumulation of cells at G2 phase at 30 uM incubated for 48 hrs by PI/RNase staining based flow cytometry; type: functional
[14] = test system: NALM-6; assay: Induction of cell cycle arrest in human NALM-6 cells assessed as reduction in proportion of cells at S phase at 30 uM incubated for 48 hrs by PI/RNase staining based flow cytometry; type: functional
[15] = test system: NALM-6; assay: Induction of apoptosis in human NALM-6 cells assessed as viable cells at 10 uM incubated for 48 hrs by AnnexinV-FITC/PI staining based flow cytometry (reference value: 97.98%); type: functional; conditions: read-out: Activity
[16] = test system: NALM-6; assay: Induction of apoptosis in human NALM-6 cells assessed as early apoptotic cells at 10 uM incubated for 48 hrs by AnnexinV-FITC/PI staining based flow cytometry (reference value: 1.09%); type: functional
[17] = test system: NALM-6; assay: Induction of apoptosis in human NALM-6 cells assessed as late apoptotic cells at 10 uM incubated for 48 hrs by AnnexinV-FITC/PI staining based flow cytometry (reference value: 0.92%); type: functional
[18] = test system: NALM-6; assay: Induction of apoptosis in human NALM-6 cells assessed as necrotic cells at 10 uM incubated for 48 hrs by AnnexinV-FITC/PI staining based flow cytometry (reference value: 0.01%); type: functional
[19] = test system: NALM-6; assay: Induction of apoptosis in human NALM-6 cells assessed as viable cells at 30 uM incubated for 48 hrs by AnnexinV-FITC/PI staining based flow cytometry (reference value: 97.98%); type: functional; conditions: read-out: Activity
[20] = test system: NALM-6; assay: Induction of apoptosis in human NALM-6 cells assessed as early apoptotic cells at 30 uM incubated for 48 hrs by AnnexinV-FITC/PI staining based flow cytometry (reference value: 1.09%); type: functional
[21] = test system: NALM-6; assay: Induction of apoptosis in human NALM-6 cells assessed as late apoptotic cells at 30 uM incubated for 48 hrs by AnnexinV-FITC/PI staining based flow cytometry (reference value: 0.92%); type: functional
[22] = test system: NALM-6; assay: Induction of apoptosis in human NALM-6 cells assessed as necrotic cells at 30 uM incubated for 48 hrs by AnnexinV-FITC/PI staining based flow cytometry (reference value: 0.01%); type: functional
[23] = test system: NALM-6; assay: Induction of apoptosis in human NALM-6 cells assessed as increase in cleaved PARP expression at 10 to 30 uM incubated for 48 hrs by western blot analysis; type: functional, cell-based; conditions: dose 10-30 µM

IC50 [2] [µM]	IC50 [3] [µM]	IC50 [4] [µM]	Structure (SMILES)	IC50 [1] [µM]	other results
> 100	> 100	> 100	Cc1ccc(-c2cc(C(F)(F)F)nn2-c2ccc(S(=O)(=O)NC(=O)CCC[Se]C#N)cc2)cc1	> 100	–
33.3	30	44.1	Cc1ccc(-c2cc(C(F)(F)F)nn2-c2ccc(S(=O)(=O)NC(=O)C[Se]C#N)cc2)cc1	34.9	–
12.6	26.8	11.7	Cc1ccc(-c2cc(C(F)(F)F)nn2-c2ccc(S(=O)(=O)NC(=O)CCCCC[Se]C#N)cc2)cc1	9.95	Ratio IC50 [9]: 2.8; Activity [10]: Active; Activity [5]: Non-Toxic; Activity [6]: Non-Toxic; IC50 [11]: 11.75 µM; inhibition [12]: Dde; Activity [13]: Active; Activity [14]: Active; viability at 10 µM [15]: 97.7%; Activity [16]: 1.53%; Activity [17]: 0.72%; Activity [18]: 0.09%; viability at 30 µM [19]: 85.8%; Activity [20]: 9.51%; Activity [21]: 4.17%; Activity [22]: 0.49%; Activity [23]: Active; Activity [7]: Non-Toxic

The remaining lines, values behind:

Structure (SMILES)	IC50 [2] [µM]	IC50 [3] [µM]	IC50 [4] [µM]	IC50 [1] [µM]	other results
Cc1ccc(-c2cc(C(F)(F)F)nn2-c2ccc(S(=O)(=O)NC(=O)CCCC[Se]C#N)cc2)cc1	> 100	59.8	> 100	> 100	–
O=C(CCCCCCC(=O)Nc1ccccc1)NO [VORINOSTAT]	–	–	–	–	Activity [5]: Toxic; Activity [6]: Toxic; Activity [7]: Toxic
Cc1ccc(-c2cc(C(F)(F)F)nn2-c2ccc(S(N)(=O)=O)cc2)cc1 [CELECOXIB]	32.1	44.7	57.8	28.6	Activity [8]: Non-Toxic
Cc1ccc(-c2cc(C(F)(F)F)nn2-c2ccc(S(=O)(=O)NC(=O)CC[Se]C#N)cc2)cc1	> 100	62.5	> 100	> 100	–
